The test system of data set [1] is gld-1 FBEa RNA. Particulars: LST-1 peptide with FBF-2 RBD (no CT); cited from earlier work. An excerpt:
LST-1 is expressed in GSCs in response to signaling from the stem cell niche. The LST-1 protein is largely unstructured (Fig. 1b), including an N-terminal region that is sufficient for self-renewal of GSCs[22]. This LST-1 IDR region harbors two PUF Interacting Motifs (PIMs), LST-1 A and LST-1 B, that interact with FBF-2, each with a KxxL sequence[17],[22]. Crystal structures of FBF-2 bound to LST-1 A or B identify a seven-residue core region, including the KxxL sequence, that binds to FBF-2 with similar peptide backbone structure[17],[18]. The two LST-1 PIMs are biologically redundant for ... || If the FBF-2 CT reduces RNA-binding affinity (Fig. 3b) and competes with LST-1 for binding (Fig. 2c, d), why then does FBF-2 depend on LST-1 to repress RNAs in nematodes? To address this question, we explored RNA-binding affinities of FBF-2 RBD + CT in the presence of either LST-1 A or LST-1 B (Fig. 6; Supplementary Table 3). In contrast to results with FBF-2 RBD alone[17],[18], both LST-1 A and LST-1 B increased the RNA-binding affinity of FBF-2 RBD + CT.

Data set [2] concerns gld-1 FBEa RNA. Nature of the data set: Electrophoretic mobility shift assay (EMSA), RNA binding. Details: species or system C. elegans. Particulars: LST-1 B 50 μM. A general note: Mobility shift assays separate free from complexed probe on a gel.
Data set [3] has as its target T1, FBF-2 RBD+CT;LST-1 B peptide (Caenorhabditis elegans;Caenorhabditis …, UniProt Q09312;P91820 164-632;67-98, |).
T1 sequence 1: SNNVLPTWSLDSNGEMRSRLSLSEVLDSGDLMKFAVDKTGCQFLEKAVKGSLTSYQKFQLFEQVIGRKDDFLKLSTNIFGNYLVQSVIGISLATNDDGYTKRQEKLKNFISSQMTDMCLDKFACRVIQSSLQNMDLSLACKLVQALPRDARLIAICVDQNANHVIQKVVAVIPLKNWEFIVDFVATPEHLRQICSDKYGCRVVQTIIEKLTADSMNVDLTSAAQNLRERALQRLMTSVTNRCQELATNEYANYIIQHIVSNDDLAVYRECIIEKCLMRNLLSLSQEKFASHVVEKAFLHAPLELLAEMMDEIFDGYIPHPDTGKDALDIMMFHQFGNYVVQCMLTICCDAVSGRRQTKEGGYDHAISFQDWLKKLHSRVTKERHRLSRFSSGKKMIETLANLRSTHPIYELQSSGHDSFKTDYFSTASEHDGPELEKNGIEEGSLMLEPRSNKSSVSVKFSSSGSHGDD
T1 sequence 2: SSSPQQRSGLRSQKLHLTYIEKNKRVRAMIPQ
Briefly: EMSA; 50 uM LST-1 B; EMSA: FBF-2 in 20 mM HEPES pH 7.4, 150 mM NaCl, 0.5 mM TCEP mixed 1:1 with 5 nM final RNA in 10 mM HEPES pH 7.4, 0.01% Tween 20, 0.1 mg/ml BSA, 0.1 mg/ml yeast. Particulars: protein: recombinant;recombinant; tags: none (His6-SUMO removed with Ulp1);none (His6-SUMO removed with Ulp1); copies: 1;1; label: 3'-Cy5.

Data set [4] has as its target T2, FBF-2 RBD+CT L610A;LST-1 B peptide (Caenorhabditis elegans;Caenorhabditis …, UniProt Q09312;P91820 164-632;67-98, L610A|).
T2 sequence 1: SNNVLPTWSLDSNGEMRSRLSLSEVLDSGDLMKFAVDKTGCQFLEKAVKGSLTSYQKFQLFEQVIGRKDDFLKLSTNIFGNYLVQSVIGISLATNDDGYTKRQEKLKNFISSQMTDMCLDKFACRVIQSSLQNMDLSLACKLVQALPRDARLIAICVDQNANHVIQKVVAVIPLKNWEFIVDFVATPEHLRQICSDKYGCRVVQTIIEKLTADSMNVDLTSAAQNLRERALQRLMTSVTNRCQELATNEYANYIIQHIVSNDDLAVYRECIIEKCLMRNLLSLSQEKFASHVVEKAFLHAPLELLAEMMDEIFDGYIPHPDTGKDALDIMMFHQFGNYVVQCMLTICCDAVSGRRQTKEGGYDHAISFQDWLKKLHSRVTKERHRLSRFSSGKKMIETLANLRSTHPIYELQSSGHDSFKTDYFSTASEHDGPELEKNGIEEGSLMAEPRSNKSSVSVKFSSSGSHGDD
T2 sequence 2: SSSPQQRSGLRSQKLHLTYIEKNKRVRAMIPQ
The description is as above. As to conditions: protein: recombinant;recombinant; tags: none (His6-SUMO removed with Ulp1);none (His6-SUMO removed with Ulp1); copies: 1;1; label: 3'-Cy5.

What is called Kd is a measure of binding affinity in units of concentration.

Entries after “also recorded” stand apart in the source; their conditions may differ.

Turning to “LST-1 B: LST-1 B peptide, residues 67–98, expressed in E. coli (SSSPQQRSGLRSQKLHLTYIEKNKRVRAMIPQ; left off: His6-SUMO, N-terminal, cleaved)”, the “effect on RNA-binding affinity of FBF-2 RBD” value in the data set on gld-1 FBEa RNA [1] is “decreased the RNA-binding affinity; also recorded: decreases RNA-binding affinity”. The “effect on RNA-binding affinity” value is “little to no effect” in the data set with gld-1 FBEa RNA [2] (of FBF-2 RBD + CT L610A) and “no effect” in the data set on gld-1 FBEa RNA [2] (of FBF-2 RBD + CT Y479A).

B1: gld-1 FBEa RNA (EMSA) (ssRNA)
RNA: AUCAUGUGCCAUAC
As to B1, the results for the dissociation constant (Kd) in data set [3] and in data set [4] were 0.068 ± 0.021 µM and 0.082 ± 0.018 µM, respectively.
